Experimental findings from patent US11447466B2, “Substituted indole compounds useful as inhibitors of TLR7/8/9” (BRISTOL-MYERS SQUIBB COMPANY, priority 2017, dated 2022) are described below.

Structures are written as SMILES. Some results are limits rather than exact numbers.

What all share (type): cell-based
Experiment [1] addresses T1, human TLR7 (Homo sapiens, UniProt Q9NYK1).
T1 construct: host or cells: HEK-Blue cells
T1 sequence (Q9NYK1 27-1049): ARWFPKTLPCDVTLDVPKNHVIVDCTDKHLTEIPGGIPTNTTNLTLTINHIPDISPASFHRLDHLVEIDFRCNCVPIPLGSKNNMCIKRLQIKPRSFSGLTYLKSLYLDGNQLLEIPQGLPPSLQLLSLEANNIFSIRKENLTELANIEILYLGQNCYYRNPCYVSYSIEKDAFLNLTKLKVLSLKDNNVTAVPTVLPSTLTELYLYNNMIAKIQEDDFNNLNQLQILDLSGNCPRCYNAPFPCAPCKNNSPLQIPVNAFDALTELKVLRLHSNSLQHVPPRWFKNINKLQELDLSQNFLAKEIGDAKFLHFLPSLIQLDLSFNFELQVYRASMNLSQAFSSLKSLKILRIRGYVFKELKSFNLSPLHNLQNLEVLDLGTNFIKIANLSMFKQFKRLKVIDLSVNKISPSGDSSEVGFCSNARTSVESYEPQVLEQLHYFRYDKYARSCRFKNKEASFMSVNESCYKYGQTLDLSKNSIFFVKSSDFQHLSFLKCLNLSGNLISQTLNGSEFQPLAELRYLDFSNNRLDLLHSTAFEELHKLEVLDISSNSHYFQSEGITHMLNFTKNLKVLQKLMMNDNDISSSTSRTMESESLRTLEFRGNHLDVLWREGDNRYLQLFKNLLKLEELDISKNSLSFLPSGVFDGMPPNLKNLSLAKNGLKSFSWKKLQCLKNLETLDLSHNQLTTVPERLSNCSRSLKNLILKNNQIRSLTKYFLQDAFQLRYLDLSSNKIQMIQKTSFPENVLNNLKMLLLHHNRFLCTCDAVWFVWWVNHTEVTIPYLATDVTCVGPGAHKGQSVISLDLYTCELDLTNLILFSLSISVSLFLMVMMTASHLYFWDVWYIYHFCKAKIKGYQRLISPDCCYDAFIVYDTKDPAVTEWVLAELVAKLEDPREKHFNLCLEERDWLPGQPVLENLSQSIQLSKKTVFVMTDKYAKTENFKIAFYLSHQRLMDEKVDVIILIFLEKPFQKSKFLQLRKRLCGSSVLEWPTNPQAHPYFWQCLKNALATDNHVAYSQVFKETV
Description: TLR7 inhibition reporter assay (HEK-Blue SEAP reporter, gardiquimod stimulation). The conditions noted are these: HEK-Blue cells overexpressing human TLR7, SEAP reporter, gardiquimod 7.5 μM, 22 hour incubation. Summed up: (§1)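 Agonists used: gardiquimod 7.5 μM (TLR7), R848 15.9 μM (TLR8), ODN2006 5 nM (TLR9), added after 30 min room-temperature compound pre-treatment (0.05 nM–50 μM) of receptor-overexpressing HEK-Blue cells. SEAP reporter (NF-κB/AP-1 driven) read after 22 h at 37 °C; inhibition scaled between agonist+DMSO and reference-inhibitor wells.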
On the technique in general: Reporter assays use an easily measured gene product as a stand-in for the process of interest.

The target in experiment [2] is T2, human TLR8 (Homo sapiens, UniProt Q9NR97).
T2 construct: host or cells: HEK-Blue cells
T2 sequence (Q9NR97 27-1041): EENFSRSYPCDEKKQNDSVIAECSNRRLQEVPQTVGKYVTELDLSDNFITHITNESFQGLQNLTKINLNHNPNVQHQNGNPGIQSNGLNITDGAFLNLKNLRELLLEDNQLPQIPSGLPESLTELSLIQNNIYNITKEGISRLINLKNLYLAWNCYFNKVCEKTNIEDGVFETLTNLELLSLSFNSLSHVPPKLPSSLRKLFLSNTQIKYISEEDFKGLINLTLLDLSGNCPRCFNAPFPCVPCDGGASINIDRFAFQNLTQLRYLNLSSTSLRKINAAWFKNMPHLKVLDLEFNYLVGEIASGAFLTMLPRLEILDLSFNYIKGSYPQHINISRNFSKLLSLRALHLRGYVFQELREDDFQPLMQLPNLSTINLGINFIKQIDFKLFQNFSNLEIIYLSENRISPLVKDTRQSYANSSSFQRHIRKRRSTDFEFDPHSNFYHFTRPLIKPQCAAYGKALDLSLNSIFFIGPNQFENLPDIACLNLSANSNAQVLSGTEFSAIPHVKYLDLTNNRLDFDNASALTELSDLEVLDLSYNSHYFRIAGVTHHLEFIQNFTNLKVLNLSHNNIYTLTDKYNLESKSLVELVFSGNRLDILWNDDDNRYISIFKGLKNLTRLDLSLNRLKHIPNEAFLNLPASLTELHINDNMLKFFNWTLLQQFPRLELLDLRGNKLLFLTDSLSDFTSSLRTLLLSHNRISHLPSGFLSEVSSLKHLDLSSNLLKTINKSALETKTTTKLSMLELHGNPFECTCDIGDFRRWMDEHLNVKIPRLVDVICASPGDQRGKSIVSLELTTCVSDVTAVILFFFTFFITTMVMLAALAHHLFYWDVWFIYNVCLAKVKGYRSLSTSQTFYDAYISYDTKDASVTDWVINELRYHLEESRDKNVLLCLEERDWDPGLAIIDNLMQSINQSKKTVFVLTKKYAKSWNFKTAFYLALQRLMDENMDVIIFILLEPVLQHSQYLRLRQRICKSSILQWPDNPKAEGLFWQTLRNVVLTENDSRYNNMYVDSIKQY
Description: TLR8 inhibition reporter assay (HEK-Blue SEAP reporter, R848 stimulation). Conditions: HEK-Blue cells overexpressing human TLR8, SEAP reporter, R848 15.9 μM, 22 hour incubation. A digest of the protocol: as §1

The target of experiment [3] is T3, human TLR9 (Homo sapiens, UniProt Q9NR96).
T3 construct: host or cells: HEK-Blue cells
T3 sequence (Q9NR96 26-1032): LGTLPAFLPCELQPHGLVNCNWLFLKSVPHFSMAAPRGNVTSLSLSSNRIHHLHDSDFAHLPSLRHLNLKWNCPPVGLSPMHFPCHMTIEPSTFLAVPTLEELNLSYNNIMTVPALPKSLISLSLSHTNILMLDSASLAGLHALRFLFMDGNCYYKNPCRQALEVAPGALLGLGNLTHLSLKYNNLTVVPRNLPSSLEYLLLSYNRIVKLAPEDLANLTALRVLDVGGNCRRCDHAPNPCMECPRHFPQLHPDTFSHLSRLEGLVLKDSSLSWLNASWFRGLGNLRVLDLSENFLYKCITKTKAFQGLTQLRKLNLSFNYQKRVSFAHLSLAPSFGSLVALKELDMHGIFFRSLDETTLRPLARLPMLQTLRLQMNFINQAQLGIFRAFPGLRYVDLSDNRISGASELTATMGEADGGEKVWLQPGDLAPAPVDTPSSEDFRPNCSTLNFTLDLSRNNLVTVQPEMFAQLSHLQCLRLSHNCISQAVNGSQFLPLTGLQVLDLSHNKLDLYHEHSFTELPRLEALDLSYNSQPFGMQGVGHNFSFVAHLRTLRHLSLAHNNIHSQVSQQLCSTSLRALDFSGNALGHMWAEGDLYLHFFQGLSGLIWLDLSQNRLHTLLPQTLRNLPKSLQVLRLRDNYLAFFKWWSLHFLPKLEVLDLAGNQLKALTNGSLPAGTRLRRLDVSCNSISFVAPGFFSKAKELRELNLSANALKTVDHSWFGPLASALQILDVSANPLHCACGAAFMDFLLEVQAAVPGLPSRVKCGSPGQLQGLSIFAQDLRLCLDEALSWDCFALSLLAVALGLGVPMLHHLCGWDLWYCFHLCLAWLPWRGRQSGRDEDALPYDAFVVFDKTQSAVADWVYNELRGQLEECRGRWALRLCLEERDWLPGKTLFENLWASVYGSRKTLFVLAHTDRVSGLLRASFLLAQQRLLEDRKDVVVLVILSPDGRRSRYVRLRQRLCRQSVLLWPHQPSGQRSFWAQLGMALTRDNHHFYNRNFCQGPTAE
The experiment in a line: TLR9 inhibition reporter assay (HEK-Blue SEAP reporter, ODN2006 stimulation). Conditions: HEK-Blue cells overexpressing human TLR9, SEAP reporter, ODN2006 5 nM, 22 hour incubation. Summed up: as §1

As a reminder, the IC50 is the concentration that inhibits the measured activity by half. Low readings indicate higher potency, high ones lower potency. Regarding `Cc1cc(-c2[nH]c3ccc(C4CCN(C(=O)CC(C)(C)O)CC4)cc3c2C(C)C)cn(C)c1=O` [Example 303, 5-(5-(1-(3-hydroxy-3-methylbutanoyl)piperidin-4-yl)-3-isopropyl-1H-indol-2-yl)-1,3-dimethylpyridin-2(1H)-one], the IC50 in experiment [1] is 9.6 nM; in experiment [2], 49.9 nM; in experiment [3], ≥ 50000 nM.
In the case of `COCc1cc(-c2[nH]c3ccc(C4CCN(CC(=O)N(C)C)CC4)cc3c2C(C)C)cn(C)c1=O` [Example 351, 2-(4-(3-isopropyl-2-(5-(methoxymethyl)-1-methyl-6-oxo-1,6-dihydropyridin-3-yl)-1H-indol-5-yl)piperidin-1-yl)-N,N-dimethylacetamide], the IC50 amounted to 78.5 nM in experiment [1], 135 nM in experiment [2] and 11900 nM in experiment [3].
For the compound `Cc1cc(-c2[nH]c3ccc(C4CCN(C(C)C)CC4)cc3c2C(C)C)c(C)n(C)c1=O` [Example 214, 5-(3-isopropyl-5-(1-isopropylpiperidin-4-yl)-1H-indol-2-yl)-1,3,6-trimethylpyridin-2(1H)-one], the IC50 was 13.9 nM in experiment [1], 7.9 nM in experiment [2] and 5690 nM in experiment [3].
For `Cc1c(-c2[nH]c3ccc(C4CCN(CC5CCOC5)CC4)cc3c2C(C)C)cn(C)c(=O)c1Cl` (stereo not drawn) [Example 254, 3-chloro-5-(3-isopropyl-5-(1-((tetrahydrofuran-3-yl)methyl)piperidin-4-yl)-1H-indol-2-yl)-1,4-dimethylpyridin-2(1H)-one], the IC50 in experiment [1] worked out at 5.5 nM; in experiment [2], 2.1 nM; in experiment [3], 2670 nM.
Consider `CN[C@@H](C)C(=O)N1CCC(c2ccc3[nH]c(-c4cc(C)c(=O)n(C)c4)c(C(C)C)c3c2)CC1` [Example 297, 5-(3-isopropyl-5-(1-(methyl-L-alanyl)piperidin-4-yl)-1H-indol-2-yl)-1,3-dimethylpyridin-2(1H)-one], for which the results for the IC50 in experiment [1], in experiment [2] and in experiment [3] were 4.4 nM, 5.5 nM and 3990 nM, respectively.
As to `Cc1cc(-c2[nH]c3ccc(C4CCNCC4)cc3c2C(C)C)cn(CC2CC2)c1=O` [Example 34, 1-(cyclopropylmethyl)-5-(3-isopropyl-5-(piperidin-4-yl)-1H-indol-2-yl)-3-methylpyridin-2(1H)-one], the IC50 in experiment [1] came out at 7.1 nM; in experiment [2], 48 nM; in experiment [3], 1460 nM.
For `CC(C)c1c(-c2cn(C)c(=O)cn2)[nH]c2ccc(C3CCNCC3)cc12` [Example 4, 5-(3-isopropyl-5-(piperidin-4-yl)-1H-indol-2-yl)-1-methylpyrazin-2(1H)-one], in that order: 82.8 nM, 38.4 nM and 756 nM.
For the compound `Cc1c(-c2[nH]c3ccc(C4CCN(C(CCO)CCO)CC4)cc3c2C(C)C)cn(C)c(=O)c1Cl` [Example 243, 3-chloro-5-(5-(1-(1,5-dihydroxypentan-3-yl)piperidin-4-yl)-3-isopropyl-1H-indol-2-yl)-1,4-dimethylpyridin-2(1H)-one], the IC50 in experiment [1] turned out to be 1.4 nM; in experiment [2], 9.1 nM; in experiment [3] it was 1770 nM.
Regarding `Cc1cc(-c2[nH]c3ccc(C4CCN(C5CCS(=O)(=O)C5)CC4)cc3c2C(C)C)cn(C)c1=O` (stereo not drawn) [Example 81, 5-(5-(1-(1,1-dioxidotetrahydrothiophen-3-yl)piperidin-4-yl)-3-isopropyl-1H-indol-2-yl)-1,3-dimethylpyridin-2(1H)-one], the IC50 in experiment [1] was 8.8 nM; in experiment [2], 20.3 nM; in experiment [3] it was ≥ 50000 nM.
`COCCOCCOCCN1CCC(c2ccc3[nH]c(-c4cn(C)c(=O)c(Cl)c4C)c(C(C)C)c3c2)CC1` [Example 98, 3-chloro-5-(3-isopropyl-5-(1-(2-(2-(2-methoxyethoxy)ethoxy)ethyl)piperidin-4-yl)-1H-indol-2-yl)-1,4-dimethylpyridin-2(1H)-one]: the IC50 came out at 20.6 nM in experiment [1], 10.4 nM in experiment [2] and 8750 nM in experiment [3].
With `CCc1cc(-c2[nH]c3ccc(C4CCN(CC(=O)N(C)C)CC4)cc3c2C(C)C)cn(C)c1=O` [Example 168, 2-(4-(2-(5-ethyl-1-methyl-6-oxo-1,6-dihydropyridin-3-yl)-3-isopropyl-1H-indol-5-yl)piperidin-1-yl)-N,N-dimethylacetamide], the IC50 in experiment [1] stood at 7.9 nM; in experiment [2], 10.3 nM; in experiment [3], 2380 nM.
For `Cc1cc(-c2[nH]c3ccc(C4CCN(CC(C)C)CC4)cc3c2C(C)C)cn(CC(C)C)c1=O` [Example 112, 1-isobutyl-5-(5-(1-isobutylpiperidin-4-yl)-3-isopropyl-1H-indol-2-yl)-3-methylpyridin-2(1H)-one], the concentration for half-maximal inhibition (IC50) worked out at 38.9 nM in experiment [1], 70.5 nM in experiment [2] and 2360 nM in experiment [3].
